# Data: patent US20230065158A1, “OXABICYCLOHEPTANES FOR TREATMENT OF SMALL CELL LUNG CANCER” (Lixte Biotechnology, Inc., priority 2021, published 2023)
# What was measured:
# H524 cells = assay: Cell Counting Kit-8 cytotoxicity and drug combination, H524; conditions: Homo sapiens, NCI-H524, 72 h, read-out: Cytotoxicity IC50, H524; 72 hours
# Protocol: (§1) A Mann-Whitney U test was used for comparison between the normal and SCLC samples. FIG. 1B: IHC for PP2A was conducted on TMA tissue sections and images were captured at 4× or 20× using a 3D-Histech PANNORAMIC SCAN whole slide scanner (3D-Histech, Budapest, Hungary). […] TMAs were scored in normal (n=24) and tumor (n=79) cores on a scale from 0 (no staining/no protein expression) to 3+(strong staining/high protein expression). FIG. 1C: Summary bar graph of the average PP2A subunit staining. IHC staining intensity of normal and tumor cores. […] FIG. 1D: In order to compare the expression of PP2A subunits A and C, cell lysates from seven SCLC cell lines and HBEC 3KT (non-malignant cell line) were subjected to western blotting. FIG. 1E: PP2A activity was determined using a serine/threonine phosphatase activity assay (Millipore) after 24 h exposure to cantharidin (10 μM) and LB-100 (5 μM). […] The Cell Counting Kit-8 assay detected cell H524 and H69 cell viability. […] FIGS. 1I-1K: Graphs depict the mean+SEM of percent viability for cells (n=3). Colony formation assays were used to count the ability of H524 (FIGS. 11 and 1J) and H69 (FIGS. 1K and 1L) cells to form colonies. […] Representative images of colonies at 4× are shown under the graph (n=2).*p<0.05; **, p<0.01; *** p<0.001; ****, p<0.0001. Experiments were repeated in triplicate and representative data are shown.
# H146 cells = assay: Cell Counting Kit-8 cytotoxicity, H146; conditions: Homo sapiens, NCI-H146, 72 h, read-out: Cytotoxicity IC50, H146
# Text: (§2) To determine specific cytotoxicity, we used Cell Counting Kit-8 (Dojindo Molecular Technologies, Rockville, Md.) as previously described (50).
# H524 and H69 cells = assay: Colony formation assay; format: cell-based; conditions: both cell lines; H524/H69: LB-100 2.5/20 μM, carboplatin 4/20 μM, etoposide 3/30 μM
# Protocol: as §1
# H82 cells = assay: Cell Counting Kit-8 cytotoxicity, H82; conditions: Homo sapiens, NCI-H82, 72 h, read-out: Cytotoxicity IC50, H82
# Text: as §2
# H526 cells = assay: Cell Counting Kit-8 cytotoxicity, H526; conditions: Homo sapiens, NCI-H526, 72 h, read-out: Cytotoxicity IC50, H526
# Text: as §2
# H446 cells = assay: Cell Counting Kit-8 cytotoxicity, H446; conditions: Homo sapiens, NCI-H446, 72 h, read-out: Cytotoxicity IC50, H446
# Text: as §2
# H69 cells = assay: Cell Counting Kit-8 cytotoxicity and drug combination, H69; conditions: Homo sapiens, NCI-H69, 72 h, read-out: Cytotoxicity IC50, H69; 72 hours
# Protocol: as §1
# PP2A = molecular target: T1, PP2A (Homo sapiens, UniProt P67775); assay: PP2A immunoprecipitation Ser/Thr phosphatase activity assay in treated H524 cells; format: cell-based; conditions: cantharidin 10 μM, 24 h
# T1 construct: endogenous in cells; host or cells: H524 (human SCLC) cells
# Protocol: FIGS. 1A-IL depict the effects of LB-100 on PP2A-A expression in SCLC tumors and cells. […] A Mann-Whitney U test was used for comparison between the normal and SCLC samples. FIG. 1B: IHC for PP2A was conducted on TMA tissue sections and images were captured at 4× or 20× using a 3D-Histech PANNORAMIC SCAN whole slide scanner (3D-Histech, Budapest, Hungary). […] TMAs were scored in normal (n=24) and tumor (n=79) cores on a scale from 0 (no staining/no protein expression) to 3+(strong staining/high protein expression). FIG. 1C: Summary bar graph of the average PP2A subunit staining. IHC staining intensity of normal and tumor cores. There was a statistically significant difference between normal and tumor tissue (p<0.001). FIG. 1D: In order to compare the expression of PP2A subunits A and C, cell lysates from seven SCLC cell lines and HBEC 3KT (non-malignant cell line) were subjected to western blotting. FIG. 1E: PP2A activity was determined using a serine/threonine phosphatase activity assay (Millipore) after 24 h exposure to cantharidin (10 μM) and LB-100 (5 μM). […] LB-100 alone or in combination with carboplatin inhibited proliferation and colony formation in SCLC cells. The Cell Counting Kit-8 assay detected cell H524 and H69 cell viability. […] FIGS. 1I-1K: Graphs depict the mean+SEM of percent viability for cells (n=3). […]
# H446 spheroids = H446 spheroids with drugs and T cells, live imaging; format: cell-based; conditions: without T cells, 48 h
# Protocol: FIGS. 7A-7G depict results of T cells infiltration in H446 spheroids in the presence of LB100 and atezolizumab. FIG. 7A: Schematic of the effect of activated T cells on H446 spheroid degradation. At time point 0, single spheroids in 96 well plate were treated with LB-100, atezolizumab and T cells. Beads mimic in vivo T cell activation by two action signals CD3 and CD28. IncuCyte® Live-Cell Analysis System was used for the spheroidal imaging. Right panel presents spheroidal degeneration after 48 h incubation with LB-100, atezolizumab and activated T cells. FIGS. 7B and 7C: Automated image analysis provides metrics (0 h-μm, […]) and spheroid area (yellow-bright field mask). Column bars present mean values of spheroids at 0h. Representative images in bright field mask. […]
# Cytotoxic CD8+ cells were isolated from whole blood, buffy coat of healthy donors following the protocol described in the Methods. […] Spheroid survival was monitored for 48 hours and their diameters were measured from phase contrast images. […]
# H446 were generated as described in Materials and Methods (Monitoring of spheroid growth and cytotoxicity with the IncuCyte® Live-Cell Analysis System and IncuCyte® Cytotox reagent) following incubation with T cells and drugs. The effect of LB100 and atezolizumab in the presence of T cells was monitored with IncuCyte 3D Multi-Tumor Spheroid assay.
# T1 sequence (P67775 whole entry): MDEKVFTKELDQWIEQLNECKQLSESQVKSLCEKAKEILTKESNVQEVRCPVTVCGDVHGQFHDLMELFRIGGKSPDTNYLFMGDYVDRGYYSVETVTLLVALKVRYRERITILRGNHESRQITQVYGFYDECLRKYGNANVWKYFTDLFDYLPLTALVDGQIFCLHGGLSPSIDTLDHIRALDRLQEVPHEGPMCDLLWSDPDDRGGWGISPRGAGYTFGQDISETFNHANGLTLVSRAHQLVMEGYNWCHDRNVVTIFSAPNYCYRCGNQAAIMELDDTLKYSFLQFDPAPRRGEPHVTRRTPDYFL
# T1 sequence (P30153 whole entry partner): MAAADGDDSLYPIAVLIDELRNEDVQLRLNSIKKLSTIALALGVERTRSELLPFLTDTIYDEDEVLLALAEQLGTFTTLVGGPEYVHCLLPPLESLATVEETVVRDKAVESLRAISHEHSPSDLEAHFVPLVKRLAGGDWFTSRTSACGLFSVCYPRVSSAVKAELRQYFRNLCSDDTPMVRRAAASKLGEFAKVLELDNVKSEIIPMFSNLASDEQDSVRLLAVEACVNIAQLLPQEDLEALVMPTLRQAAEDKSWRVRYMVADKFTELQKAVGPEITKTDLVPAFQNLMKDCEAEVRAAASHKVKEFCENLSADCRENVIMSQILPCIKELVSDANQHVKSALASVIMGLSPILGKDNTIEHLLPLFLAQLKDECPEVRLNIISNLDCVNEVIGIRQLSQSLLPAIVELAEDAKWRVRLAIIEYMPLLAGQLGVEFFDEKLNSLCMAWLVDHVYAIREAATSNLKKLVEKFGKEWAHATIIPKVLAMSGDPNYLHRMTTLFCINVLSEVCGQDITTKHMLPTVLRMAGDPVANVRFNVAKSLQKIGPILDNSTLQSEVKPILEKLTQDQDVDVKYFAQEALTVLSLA
molecule,measurement,setting,value
COc1cc([C@@H]2c3cc4c(cc3[C@@H](O[C@@H]3O[C@@H]5CO[C@@H](C)O[C@H]5[C@H](O)[C@H]3O)[C@H]3COC(=O)[C@H]23)OCO4)cc(OC)c1O [Etoposide],IC50,H524 cells,3000 nM
same,IC50,H146 cells,31.2 µM
same,colony formation,H524 and H69 cells,significantly reduced colony formation
same,IC50,H82 cells,22.6 µM
same,IC50,H526 cells,2800 nM
same,IC50,H446 cells,3000 nM
same,IC50,H69 cells,30 µM
"C[C@@]12C(=O)OC(=O)[C@]1(C)[C@H]1CC[C@@H]2O1 [cantharidin, reference compound]",PP2A activity reduced by,PP2A,~90%
atezolizumab: humanized immunoglobulin (Ig) G1 monoclonal antibody that targets PD-L1 [reference compound],"effect on spheroids (degeneration), drug alone",H446 spheroids,no effect
